# According to PubChem BioAssay (NCI):
#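 The compound was tested at five concentrations on cells cultured in 96-well plates, with a 48-hour exposure period. The concentration for 50% growth inhibition is given as GI50. TGI is the concentration that stops growth completely.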
# Experiments:
# Experiment in all cases: NCI-60 cell line screen, 48 h
# K-562 leukemia = system: K-562 leukemia
# HCT-116 colon = system: HCT-116 colon
# NCI-H226 lung = system: NCI-H226 lung
# ACHN renal = system: ACHN renal
# SF-539 CNS = system: SF-539 CNS
# PC-3 prostate = system: PC-3 prostate
# RXF 393 renal = system: RXF 393 renal
# IGROV1 ovarian = system: IGROV1 ovarian
# OVCAR-3 ovarian = system: OVCAR-3 ovarian
# HCT-15 colon = system: HCT-15 colon
# SK-MEL-28 melanoma = system: SK-MEL-28 melanoma
# MDA-MB-231 breast = system: MDA-MB-231 breast
# CCRF-CEM leukemia = system: CCRF-CEM leukemia
# OVCAR-4 ovarian = system: OVCAR-4 ovarian
# T-47D breast = system: T-47D breast
# NCI/ADR-RES ovarian = system: NCI/ADR-RES ovarian
# MOLT-4 leukemia = system: MOLT-4 leukemia
# BT-549 breast = system: BT-549 breast
# OVCAR-8 ovarian = system: OVCAR-8 ovarian
# UACC-62 melanoma = system: UACC-62 melanoma
# NCI-H460 lung = system: NCI-H460 lung
# HL-60(TB) leukemia = system: HL-60(TB) leukemia
# SK-MEL-5 melanoma = system: SK-MEL-5 melanoma
# SNB-19 CNS = system: SNB-19 CNS
# EKVX NSCLC = system: EKVX NSCLC
# UO-31 renal = system: UO-31 renal
# SR leukemia = system: SR leukemia
# M14 melanoma = system: M14 melanoma
# DU-145 prostate = system: DU-145 prostate
# UACC-257 melanoma = system: UACC-257 melanoma
# MDA-MB-435 = system: MDA-MB-435
# U251 CNS = system: U251 CNS
# SN12C renal = system: SN12C renal
# HS 578T breast = system: HS 578T breast
# HCC-2998 colon = system: HCC-2998 colon
# SF-268 CNS = system: SF-268 CNS
# A498 renal = system: A498 renal
# SF-295 CNS = system: SF-295 CNS
# NCI-H522 lung = system: NCI-H522 lung
# COLO 205 colon = system: COLO 205 colon
# LOX IMVI melanoma = system: LOX IMVI melanoma
# MCF7 breast = system: MCF7 breast
# HT29 colon = system: HT29 colon
# SNB-75 CNS = system: SNB-75 CNS
# RPMI-8226 leukemia = system: RPMI-8226 leukemia
# 786-0 renal = system: 786-0 renal
# TK-10 renal = system: TK-10 renal
# A549 NSCLC = system: A549 NSCLC
# SW-620 colon = system: SW-620 colon
# NCI-H23 lung = system: NCI-H23 lung
# OVCAR-5 ovarian = system: OVCAR-5 ovarian
# HOP-92 NSCLC = system: HOP-92 NSCLC
# SK-OV-3 ovarian = system: SK-OV-3 ovarian
# KM12 colon = system: KM12 colon
# HOP-62 NSCLC = system: HOP-62 NSCLC
# CAKI-1 renal = system: CAKI-1 renal
# SK-MEL-2 melanoma = system: SK-MEL-2 melanoma
# MALME-3M melanoma = system: MALME-3M melanoma
compound,measurement,setting,value
Cc1ccc(S(=O)(=O)Oc2ccccc2-c2ccccc2)cc1,GI50,K-562 leukemia,0.524 µM
same,TGI,K-562 leukemia,> 100 µM
same,GI50,HCT-116 colon,2.85 µM
same,TGI,HCT-116 colon,> 100 µM
same,GI50,NCI-H226 lung,21.2 µM
same,TGI,NCI-H226 lung,> 100 µM
same,GI50,ACHN renal,6.81 µM
same,TGI,ACHN renal,> 100 µM
same,GI50,SF-539 CNS,2.38 µM
same,TGI,SF-539 CNS,8.1 µM
same,GI50,PC-3 prostate,3.52 µM
same,TGI,PC-3 prostate,> 100 µM
same,GI50,RXF 393 renal,2.31 µM
same,TGI,RXF 393 renal,> 27.7 µM
same,GI50,IGROV1 ovarian,2.16 µM
same,TGI,IGROV1 ovarian,> 100 µM
same,GI50,OVCAR-3 ovarian,1.81 µM
same,TGI,OVCAR-3 ovarian,6.94 µM
same,GI50,HCT-15 colon,1.62 µM
same,TGI,HCT-15 colon,> 100 µM
same,GI50,SK-MEL-28 melanoma,7.77 µM
same,TGI,SK-MEL-28 melanoma,> 100 µM
same,GI50,MDA-MB-231 breast,3.7 µM
same,TGI,MDA-MB-231 breast,> 100 µM
same,GI50,CCRF-CEM leukemia,2.48 µM
same,TGI,CCRF-CEM leukemia,> 100 µM
same,GI50,OVCAR-4 ovarian,7.13 µM
same,TGI,OVCAR-4 ovarian,> 100 µM
same,GI50,T-47D breast,5.14 µM
same,TGI,T-47D breast,> 100 µM
same,GI50,NCI/ADR-RES ovarian,1.13 µM
same,TGI,NCI/ADR-RES ovarian,> 28.9 µM
same,GI50,MOLT-4 leukemia,3.9 µM
same,TGI,MOLT-4 leukemia,> 100 µM
same,GI50,BT-549 breast,8.41 µM
same,TGI,BT-549 breast,> 100 µM
same,GI50,OVCAR-8 ovarian,4.86 µM
same,TGI,OVCAR-8 ovarian,> 100 µM
same,GI50,UACC-62 melanoma,2.3 µM
same,TGI,UACC-62 melanoma,> 100 µM
same,GI50,NCI-H460 lung,2.32 µM
same,TGI,NCI-H460 lung,> 100 µM
same,GI50,HL-60(TB) leukemia,2.12 µM
same,TGI,HL-60(TB) leukemia,> 100 µM
same,GI50,SK-MEL-5 melanoma,2.98 µM
same,TGI,SK-MEL-5 melanoma,> 100 µM
same,GI50,SNB-19 CNS,5.24 µM
same,TGI,SNB-19 CNS,> 100 µM
same,GI50,EKVX NSCLC,3.21 µM
same,TGI,EKVX NSCLC,> 100 µM
same,GI50,UO-31 renal,4.01 µM
same,TGI,UO-31 renal,> 75.7 µM
same,GI50,SR leukemia,0.465 µM
same,TGI,SR leukemia,> 70.7 µM
same,GI50,M14 melanoma,2.05 µM
same,TGI,M14 melanoma,> 86.1 µM
same,GI50,DU-145 prostate,2.87 µM
same,TGI,DU-145 prostate,> 29.8 µM
same,GI50,UACC-257 melanoma,4.35 µM
same,TGI,UACC-257 melanoma,> 100 µM
same,GI50,MDA-MB-435,0.249 µM
same,TGI,MDA-MB-435,0.834 µM
same,GI50,U251 CNS,3.81 µM
same,TGI,U251 CNS,> 100 µM
same,GI50,SN12C renal,6.18 µM
same,TGI,SN12C renal,> 100 µM
same,GI50,HS 578T breast,3.09 µM
same,TGI,HS 578T breast,> 26.9 µM
same,GI50,HCC-2998 colon,3.87 µM
same,TGI,HCC-2998 colon,> 72.7 µM
same,GI50,SF-268 CNS,5.95 µM
same,TGI,SF-268 CNS,> 100 µM
same,GI50,A498 renal,1.42 µM
same,TGI,A498 renal,8.94 µM
same,GI50,SF-295 CNS,0.702 µM
same,TGI,SF-295 CNS,3.3 µM
same,GI50,NCI-H522 lung,0.542 µM
same,TGI,NCI-H522 lung,7.83 µM
same,GI50,COLO 205 colon,2.25 µM
same,TGI,COLO 205 colon,8.41 µM
same,GI50,LOX IMVI melanoma,4.22 µM
same,TGI,LOX IMVI melanoma,> 100 µM
same,GI50,MCF7 breast,2.47 µM
same,TGI,MCF7 breast,> 100 µM
same,GI50,HT29 colon,1.18 µM
same,TGI,HT29 colon,> 43.2 µM
same,GI50,SNB-75 CNS,2.63 µM
same,TGI,SNB-75 CNS,> 29 µM
same,GI50,RPMI-8226 leukemia,3.42 µM
same,TGI,RPMI-8226 leukemia,> 55.6 µM
same,GI50,786-0 renal,8.26 µM
same,TGI,786-0 renal,> 100 µM
same,GI50,TK-10 renal,12 µM
same,TGI,TK-10 renal,> 100 µM
same,GI50,A549 NSCLC,4.4 µM
same,TGI,A549 NSCLC,> 100 µM
same,GI50,SW-620 colon,1.03 µM
same,TGI,SW-620 colon,> 100 µM
same,GI50,NCI-H23 lung,5.21 µM
same,TGI,NCI-H23 lung,> 100 µM
same,GI50,OVCAR-5 ovarian,8.26 µM
same,TGI,OVCAR-5 ovarian,> 100 µM
same,GI50,HOP-92 NSCLC,5.73 µM
same,TGI,HOP-92 NSCLC,> 100 µM
same,GI50,SK-OV-3 ovarian,3.24 µM
same,TGI,SK-OV-3 ovarian,> 45.8 µM
same,GI50,KM12 colon,0.743 µM
same,TGI,KM12 colon,> 100 µM
same,GI50,HOP-62 NSCLC,4.24 µM
same,TGI,HOP-62 NSCLC,> 100 µM
same,GI50,CAKI-1 renal,1.3 µM
same,TGI,CAKI-1 renal,> 25.5 µM
same,GI50,SK-MEL-2 melanoma,6.55 µM
same,TGI,SK-MEL-2 melanoma,> 26.1 µM
C[n+]1cn(-c2ccc([N+](=O)[O-])cn2)c2ccccc21,TGI,K-562 leukemia,> 100 µM
same,TGI,HCT-116 colon,> 100 µM
same,TGI,NCI-H226 lung,> 100 µM
same,TGI,ACHN renal,> 100 µM
same,TGI,SF-539 CNS,> 100 µM
same,TGI,PC-3 prostate,> 100 µM
same,TGI,RXF 393 renal,> 100 µM
same,TGI,IGROV1 ovarian,> 100 µM
same,TGI,OVCAR-3 ovarian,> 100 µM
same,TGI,HCT-15 colon,> 100 µM
same,TGI,SK-MEL-28 melanoma,> 100 µM
same,TGI,MDA-MB-231 breast,> 100 µM
same,TGI,CCRF-CEM leukemia,> 100 µM
same,TGI,OVCAR-4 ovarian,> 100 µM
same,TGI,T-47D breast,> 100 µM
same,TGI,NCI/ADR-RES ovarian,> 100 µM
same,TGI,MOLT-4 leukemia,> 100 µM
same,TGI,BT-549 breast,> 100 µM
same,TGI,OVCAR-8 ovarian,> 100 µM
same,TGI,UACC-62 melanoma,> 100 µM
same,TGI,NCI-H460 lung,> 100 µM
same,TGI,HL-60(TB) leukemia,> 100 µM
same,TGI,SK-MEL-5 melanoma,> 100 µM
same,TGI,SNB-19 CNS,> 100 µM
same,TGI,EKVX NSCLC,> 100 µM
same,TGI,UO-31 renal,> 100 µM
same,TGI,SR leukemia,> 100 µM
same,TGI,M14 melanoma,> 100 µM
same,TGI,DU-145 prostate,> 100 µM
same,TGI,MALME-3M melanoma,> 100 µM
same,TGI,UACC-257 melanoma,> 100 µM
same,TGI,MDA-MB-435,> 100 µM
same,TGI,U251 CNS,> 100 µM
same,TGI,HS 578T breast,> 100 µM
same,TGI,HCC-2998 colon,> 100 µM
same,TGI,SF-268 CNS,> 100 µM
same,TGI,A498 renal,> 100 µM
same,TGI,SF-295 CNS,> 100 µM
same,TGI,COLO 205 colon,> 100 µM
same,TGI,LOX IMVI melanoma,> 100 µM
same,TGI,MCF7 breast,> 100 µM
same,TGI,HT29 colon,> 100 µM
same,TGI,SNB-75 CNS,> 100 µM
same,TGI,RPMI-8226 leukemia,> 100 µM
same,TGI,786-0 renal,> 100 µM
same,TGI,TK-10 renal,> 100 µM
same,TGI,A549 NSCLC,> 100 µM
same,TGI,SW-620 colon,> 100 µM
same,TGI,NCI-H23 lung,> 100 µM
same,TGI,OVCAR-5 ovarian,> 100 µM
same,TGI,HOP-92 NSCLC,> 100 µM
same,TGI,SK-OV-3 ovarian,> 100 µM
same,TGI,KM12 colon,> 100 µM
same,TGI,HOP-62 NSCLC,> 100 µM
same,TGI,CAKI-1 renal,> 100 µM
same,TGI,SK-MEL-2 melanoma,> 100 µM
